Target: T1, p300 (Homo sapiens, UniProt Q09472)
T1 construct: host or cells: A549 P300 HiBit cells
Assay: P300 degradation, HiBit technology in A549 P300 HiBit cells (2 h)
Assay type: cell-based
Conditions: 2 hrs post treatment; for Dmax: A549, A549 P300 HiBit cells; for DC50: A549 P300 HiBit cells
Outline: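 Cells: A549 HiBiT-tagged lines, 0.2×10^4/well, F-12K + 10% HI-FBS, equilibrated overnight. Tx: serial dilution of cpd (10 mM DMSO stock). Readout: HiBiT lytic reagent, 10 min RT shaking, luminescence → potency, Dmax.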

T1 sequence (Q09472 whole entry): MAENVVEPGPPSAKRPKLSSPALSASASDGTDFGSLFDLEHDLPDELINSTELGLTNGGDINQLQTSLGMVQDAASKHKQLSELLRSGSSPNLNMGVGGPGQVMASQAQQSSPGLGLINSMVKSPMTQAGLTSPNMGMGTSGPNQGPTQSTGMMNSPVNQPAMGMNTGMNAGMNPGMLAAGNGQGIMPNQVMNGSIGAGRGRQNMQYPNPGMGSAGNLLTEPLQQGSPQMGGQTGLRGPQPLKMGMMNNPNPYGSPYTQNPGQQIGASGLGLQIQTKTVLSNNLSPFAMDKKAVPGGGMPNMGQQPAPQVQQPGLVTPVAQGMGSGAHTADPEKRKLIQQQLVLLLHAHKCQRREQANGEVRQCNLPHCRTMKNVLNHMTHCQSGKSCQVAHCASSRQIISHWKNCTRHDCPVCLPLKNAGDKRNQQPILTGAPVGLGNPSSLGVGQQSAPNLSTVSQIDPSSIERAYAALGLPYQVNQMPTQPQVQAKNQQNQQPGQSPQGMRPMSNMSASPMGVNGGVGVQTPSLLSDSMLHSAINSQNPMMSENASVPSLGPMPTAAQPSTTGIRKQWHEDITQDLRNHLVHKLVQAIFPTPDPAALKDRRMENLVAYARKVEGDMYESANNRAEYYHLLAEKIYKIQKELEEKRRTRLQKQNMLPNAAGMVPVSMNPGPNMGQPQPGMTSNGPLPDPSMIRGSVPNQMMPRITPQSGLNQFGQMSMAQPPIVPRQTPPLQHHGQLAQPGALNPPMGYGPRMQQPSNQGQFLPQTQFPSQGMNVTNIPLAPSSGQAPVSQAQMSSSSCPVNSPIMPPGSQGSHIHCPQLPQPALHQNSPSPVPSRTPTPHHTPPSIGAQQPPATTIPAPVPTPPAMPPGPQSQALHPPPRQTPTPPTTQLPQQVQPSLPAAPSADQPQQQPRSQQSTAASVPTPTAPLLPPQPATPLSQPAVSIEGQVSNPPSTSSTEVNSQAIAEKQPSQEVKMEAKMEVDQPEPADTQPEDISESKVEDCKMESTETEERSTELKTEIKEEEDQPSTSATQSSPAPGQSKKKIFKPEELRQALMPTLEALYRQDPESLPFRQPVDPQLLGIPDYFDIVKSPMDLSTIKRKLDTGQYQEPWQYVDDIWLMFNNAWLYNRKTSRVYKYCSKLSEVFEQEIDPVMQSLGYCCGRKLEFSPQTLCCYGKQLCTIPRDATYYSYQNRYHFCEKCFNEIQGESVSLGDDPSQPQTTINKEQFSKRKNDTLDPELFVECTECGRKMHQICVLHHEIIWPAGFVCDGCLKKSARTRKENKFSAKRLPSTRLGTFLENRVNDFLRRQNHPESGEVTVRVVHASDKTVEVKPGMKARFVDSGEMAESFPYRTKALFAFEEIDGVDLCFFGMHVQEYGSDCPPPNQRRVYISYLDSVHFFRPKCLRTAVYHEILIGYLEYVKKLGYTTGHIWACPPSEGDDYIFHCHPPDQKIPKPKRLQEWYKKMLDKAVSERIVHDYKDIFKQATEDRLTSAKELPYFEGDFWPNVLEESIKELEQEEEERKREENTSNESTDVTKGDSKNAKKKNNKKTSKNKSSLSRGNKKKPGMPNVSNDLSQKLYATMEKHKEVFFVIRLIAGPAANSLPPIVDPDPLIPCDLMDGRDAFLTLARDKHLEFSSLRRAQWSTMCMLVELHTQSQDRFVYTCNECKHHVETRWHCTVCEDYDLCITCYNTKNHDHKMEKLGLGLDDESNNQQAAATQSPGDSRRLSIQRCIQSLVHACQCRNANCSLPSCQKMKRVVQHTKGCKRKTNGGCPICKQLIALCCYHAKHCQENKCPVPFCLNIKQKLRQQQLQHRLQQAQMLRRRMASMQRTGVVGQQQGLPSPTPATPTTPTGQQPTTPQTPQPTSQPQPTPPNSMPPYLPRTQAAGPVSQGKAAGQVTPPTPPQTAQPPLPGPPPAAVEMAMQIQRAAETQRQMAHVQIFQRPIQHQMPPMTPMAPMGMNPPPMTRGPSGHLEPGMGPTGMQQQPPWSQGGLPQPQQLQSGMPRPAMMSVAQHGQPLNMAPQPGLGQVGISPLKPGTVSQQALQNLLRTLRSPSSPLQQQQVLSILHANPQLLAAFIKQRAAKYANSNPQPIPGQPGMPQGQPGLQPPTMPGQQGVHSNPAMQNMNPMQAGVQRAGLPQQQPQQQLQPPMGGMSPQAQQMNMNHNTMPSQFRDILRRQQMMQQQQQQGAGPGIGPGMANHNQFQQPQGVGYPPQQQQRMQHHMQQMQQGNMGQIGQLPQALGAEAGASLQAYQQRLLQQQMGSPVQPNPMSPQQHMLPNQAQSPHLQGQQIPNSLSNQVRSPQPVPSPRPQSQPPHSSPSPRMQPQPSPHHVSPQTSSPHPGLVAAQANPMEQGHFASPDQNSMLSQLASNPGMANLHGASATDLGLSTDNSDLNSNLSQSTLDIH

Dmax [%] | DC50 [nM] | SMILES
> 80 | 10 to 99 | Cc1cc(-c2ncc3c(n2)OCCN3c2ccc3c(c2)n(C)c(=O)n3C)cnc1C(=O)NCC#Cc1ccc2occ(C34CC(C3)C(=O)NC4=O)c2c1 [Example A262, 5-(5-(1,3-dimethyl-2-oxo-2,3-dihydro-1H-benzo[d]imidazol-5-yl)-6,7-dihydro-5H-pyrimido[4,5-b] [1,4]oxazin-2-yl)-N-(3-(3-(2,4-dioxo-3-azabicyclo[3.1.1]heptan-1-yl)benzofuran-5-yl)prop-2-yn-1-yl)-3-methylpicolinamide]
> 80 | 1 to 9.9 | Cn1c(=O)n(C)c2cc(N3CC(C)(C)Oc4nc(-c5ccc(C(=O)NCC#Cc6cc7c(C8CCC(=O)NC8=O)cccc7o6)nc5)ncc43)ccc21 (stereo not shown) [Example A264, 5-(5-(1,3-dimethyl-2-oxo-2,3-dihydro-1H-benzo[d]imidazol-5-yl)-7,7-dimethyl-6,7-dihydro-5H-pyrimido [4,5-b][1,4]oxazin-2-yl)-N-(3-(4-(2,6-dioxopiperidin-3-yl)benzofuran-2-yl)prop-2-yn-1-yl)picolinamide]
20 to 39 | 10 to 99 | Cn1c(=O)n(C)c2c(F)cc(N3CCOc4nc(-c5ccc(C(=O)NCC#Cc6cc7c(C8CCC(=O)NC8=O)cccc7o6)nc5)ncc43)cc21 (stereo not shown) [Example A265, N-(3-(4-(2,6-dioxo-piperidin-3-yl)benzofuran-2-yl)prop-2-yn-1-yl)-5-(5-(7-fluoro-1,3-dimethyl-2-oxo-2,3-dihydro-1H-benzo[d]imidazol-5-yl)-6,7-dihydro-5H-pyrimido[4,5-b][1,4]oxazin-2-yl)picolinamide]
> 80 | 1 to 9.9 | CCn1c(=O)n(C)c2ccc(-c3cccc4cc(-c5ccc(C(=O)NCC#Cc6cc7c(C8CCC(=O)NC8=O)cccc7o6)nc5)ncc34)cc21 (stereo not shown) [Example A267, N-(3-(4-(2,6-dioxo-piperidin-3-yl)benzofuran-2-yl)prop-2-yn-1-yl)-5-(8-(3-ethyl-1-methyl-2-oxo-2,3-dihydro-1H-benzo [d]imidazol-5-yl)isoquinolin-3-yl)picolinamide]
20 to 39 | 10 to 99 | Cn1c(=O)n(C)c2ncc(N3CCOc4nc(-c5ccc(C(=O)NCC#Cc6cc7c(C8CCC(=O)NC8=O)cccc7o6)nc5)ncc43)cc21 (stereo not shown) [Example A268, 5-(5-(1,3-dimethyl-2-oxo-2,3-dihydro-1H-imidazo[4,5-b]pyridin-6-yl)-6,7-dihydro-5H-pyrimido[4,5-b] [1,4]oxazin-2-yl)-N-(3-(4-(2,6-dioxopiperidin-3-yl)benzofuran-2-yl)prop-2-yn-1-yl)picolinamide]
60 to 79 | 10 to 99 | CCc1cc(-c2cccc3cc(-c4ccc(C(=O)NCC#Cc5ccc6c(C)nn(C7CCC(=O)NC7=O)c6c5)nc4)ncc23)c2cc(C)c(=O)n(C)c2c1 (stereo not shown) [Example B1, N-(3-(1-(2,6-Dioxopiperidin-3-yl)-3-methyl-1H-indazol-6-yl)prop-2-yn-1-yl)-5-(8-(7-ethyl-1,3-dimethyl-2-oxo-1,2-dihydroquinolin-5-yl)isoquinolin-3-yl)picolinamide]
20 to 39 | 10 to 99 | CCc1cc(-c2cccc3cc(-c4ccc(C(=O)NCC#Cc5cc6c(cnn6C6CCC(=O)NC6=O)cc5C)nc4)ncc23)c2cc(C)c(=O)n(C)c2c1 (stereo not shown) [Example B3, N-(3-(1-(2,6-Dioxopiperidin-3-yl)-5-methyl-1H-indazol-6-yl)prop-2-yn-1-yl)-5-(8-(7-ethyl-1,3-dimethyl-2-oxo-1,2-dihydroquinolin-5-yl)isoquinolin-3-yl)picolinamide]
60 to 79 | 10 to 99 | CCc1cc(-c2cccc3cc(-c4ccc(C(=O)NCC#Cc5cc(C)c6cnn(C7CCC(=O)NC7=O)c6c5)nc4)ncc23)c2cc(C)c(=O)n(C)c2c1 (stereo not shown) [Example B6, N-(3-(1-(2,6-Dioxopiperidin-3-yl)-4-methyl-1H-indazol-6-yl)prop-2-yn-1-yl)-5-(8-(7-ethyl-1,3-dimethyl-2-oxo-1,2-dihydroquinolin-5-yl)isoquinolin-3-yl)picolinamide]
< 20 | > 1000 | CCc1cc(S(=O)(=O)c2ccc(-c3cnc(C(=O)NCC#Cc4cccc(NC5CCC(=O)NC5=O)c4)c(C)c3)nc2)c2cc(C)c(=O)n(C)c2c1 (stereo not shown) [Example B10, N-(3-(3-((2,6-Dioxopiperidin-3-yl)amino)phenyl)prop-2-yn-1-yl)-5-((7-ethyl-1,3-dimethyl-2-oxo-1,2-dihydroquinolin-5-yl)sulfonyl)-5′-methyl-[2,3′-bipyridine]-6′-carboxamide]
> 80 | 10 to 99 | CCc1cc(N(C)c2ccc(-c3cnc(C(=O)NCC#Cc4cccc(NC5CCC(=O)NC5=O)c4)c(C)c3)c(Cl)c2)c2cc(C)c(=O)n(C)c2c1 (stereo not shown) [Example B11, 5-(2-Chloro-4-((7-ethyl-1,3-dimethyl-2-oxo-1,2-dihydroquinolin-5-yl)(methyl)amino)phenyl)-N-(3-(3-((2,6-dioxopiperidin-3-yl)amino)phenyl)prop-2-yn-1-yl)-3-methylpicolinamide]
< 20 | > 1000 | CCc1cc(-c2cccc3cc(-c4ccc(C(=O)NCC#Cc5ccc6c(c5)ncn6C5CCC(=O)NC5=O)nc4)ncc23)c2cc(C)c(=O)n(C)c2c1 (stereo not shown) [Example B12, N-(3-(1-(2,6-Dioxopiperidin-3-yl)-1H-benzo[d]imidazol-5-yl)prop-2-yn-1-yl)-5-(8-(7-ethyl-1,3-dimethyl-2-oxo-1,2-dihydroquinolin-5-yl)isoquinolin-3-yl)picolinamide]
> 80 | 1 to 9.9 | CCc1cc(-c2cccc3cc(-c4ccc(C(=O)NCC#Cc5ccc6cnn(C7CCC(=O)NC7=O)c6c5)nc4)ncc23)c2c(n1)N(C)C(=O)N(C)C2 (stereo not shown) [Example B13, N-(3-(1-(2,6-Dioxopiperidin-3-yl)-1H-indazol-6-yl)prop-2-yn-1-yl)-5-(8-(7-ethyl-1,3-dimethyl-2-oxo-1,2,3,4-tetrahydropyrido[2,3-d]pyrimidin-5-yl)isoquinolin-3-yl)picolinamide]
60 to 79 | 10 to 99 | CCc1cc(N(C)c2ccc(-c3cnc(C(=O)NCC#Cc4cccc(NC5CCC(=O)NC5=O)c4)c(C)c3)c(C(F)(F)F)c2)c2cc(C)c(=O)n(C)c2c1 (stereo not shown) [Example B14, N-(3-(3-((2,6-Dioxopiperidin-3-yl)amino)phenyl)prop-2-yn-1-yl)-5-(4-((7-ethyl-1,3-dimethyl-2-oxo-1,2-dihydroquinolin-5-yl)(methyl)amino)-2-(trifluoromethyl)phenyl)-3-methylpicolinamide]
> 80 | 10 to 99 | CCc1cc(N(C)c2ccc(-c3cnc(C(=O)NCC#Cc4cccc(NC5CCC(=O)NC5=O)c4)c(C)c3)c(C)c2)c2cc(C)c(=O)n(C)c2c1 (stereo not shown) [Example B15, N-(3-(3-((2,6-Dioxopiperidin-3-yl)amino)phenyl)prop-2-yn-1-yl)-5-(4-((7-ethyl-1,3-dimethyl-2-oxo-1,2-dihydroquinolin-5-yl)(methyl)amino)-2-methylphenyl)-3-methylpicolinamide]
< 20 | > 1000 | CCc1cc(Oc2ccc(-c3cnc(C(=O)NCC#Cc4cccc(NC5CCC(=O)NC5=O)c4)c(C)c3)nc2)c2cc(C)c(=O)n(C)c2c1 (stereo not shown) [Example B17, N-(3-(3-((2,6-Dioxopiperidin-3-yl)amino)phenyl)prop-2-yn-1-yl)-5-((7-ethyl-1,3-dimethyl-2-oxo-1,2-dihydroquinolin-5-yl)oxy)-5′-methyl-[2,3′-bipyridine]-6′-carboxamide]
> 80 | 10 to 99 | CCc1cc(N(C)c2ccc(-c3cnc(C(=O)NCC#Cc4cccc(NC5CCC(=O)NC5=O)c4)c(C)c3)cc2)c2cc(C)c(=O)n(C)c2c1 (stereo not shown) [Example B18, N-(3-(3-((2,6-Dioxopiperidin-3-yl)amino)phenyl)prop-2-yn-1-yl)-5-(4-((7-ethyl-1,3-dimethyl-2-oxo-1,2-dihydroquinolin-5-yl)(methyl)amino)phenyl)-3-methylpicolinamide]
> 80 | 10 to 99 | CCc1cc(N(C)c2ccc(-c3cnc(C(=O)NCC#Cc4cccc(NC5CCC(=O)NC5=O)c4)c(C)c3)c(F)c2)c2cc(C)c(=O)n(C)c2c1 (stereo not shown) [Example B19, N-(3-(3-((2,6-Dioxopiperidin-3-yl)amino)phenyl)prop-2-yn-1-yl)-5-(4-((7-ethyl-1,3-dimethyl-2-oxo-1,2-dihydroquinolin-5-yl)(methyl)amino)-2-fluorophenyl)-3-methylpicolinamide]
> 80 | 1 to 9.9 | Cc1cc(-c2cc3c(cc2F)N(c2cccc4c2cc(C)c(=O)n4C)CCO3)cnc1C(=O)NCC#Cc1ccc2occ(C3CCC(=O)NC3=O)c2c1 (stereo not shown) [Example B21, 5-(4-(1,3-dimethyl-2-oxo-1,2-dihydroquinolin-5-yl)-6-fluoro-3,4-dihydro-2H-benzo[b][1,4]oxazin-7-yl)-N-(3-(3-(2,6-dioxopiperidin-3-yl)benzofuran-5-yl)prop-2-yn-1-yl)-3-methylpicolinamide]
> 80 | 1 to 9.9 | Cc1cc2c(N3CCCc4cc(-c5ccc(C(=O)NCC#Cc6ccc7occ(C8CCC(=O)NC8=O)c7c6)nc5)c(C(F)F)cc43)cccc2n(C)c1=O (stereo not shown) [Example B22, 5-(7-(difluoromethyl)-1′,3′-dimethyl-2′-oxo-1′,2′,3,4-tetrahydro-2H-[1,5′-biquinolin]-6-yl)-N-(3-(3-(2,6-dioxopiperidin-3-yl)benzofuran-5-yl)prop-2-yn-1-yl)picolinamide]
60 to 79 | 1 to 9.9 | Cc1cc2c(N3CCCc4nc(-c5ccc(C(=O)NCC#Cc6ccc7occ(C8CCC(=O)NC8=O)c7c6)nc5)ncc43)nc(N3CCC(F)CC3)cc2n(C)c1=O (stereo not shown) [Example B27, N-(3-(3-(2,6-dioxopiperidin-3-yl)benzofuran-5-yl)prop-2-yn-1-yl)-5-(5-(7-(4-fluoro-piperidin-1-yl)-1,3-dimethyl-2-oxo-1,2-dihydro-1,6-naphthyridin-5-yl)-5,6,7,8-tetrahydropyrido[3,2-d]pyrimidin-2-yl) picolinamide]
